This is an account of results in article PMC3174345 (Arthritis and rheumatism, 2011).

One series deals with DR0401-IE mice. The following applies: mouse, in vivo.
The test system of series [1] is splenocytes of DR0401-IE mice. In words: 3H-thymidine proliferation recall assay of splenocytes from immunized mice. Type of series: cell-based, mouse.

Regarding “cit-vim59-71: shorter citrullinated vimentin peptide, aa 59-71 (GVYATRSSAVRLR; citrullinated; UniProt P08670 59-71, looked up, fragment)”, the “mice developing signs of ankle swelling or polyarthritis” value with DR0401-IE mice is “none”. Further, the “proliferative recall response at 13 weeks” value in series [1] (immunized DR0401-IE mice harvested at week 13 (supplemental fig. 1)) is “strong proliferative recall response”. In addition, in series [1] (mice immunized with cit-vim59-78, challenge with short peptides at 5 μg/ml, n=13), the “immunodominant region in in vitro restimulation” value was “immunologically dominant region”.
